Measured values taken from ChEMBL document CHEMBL3045790, “QSAR study of 5-arylidene-2,4-thiazolidinediones as aldose reductase inhibitors” (Med Chem Res, 2008).

These compounds were tested against Aldo-keto reductase family 1 member B1 (Homo sapiens, UniProt P15121) (assay: Inhibition of aldose reductase (unknown origin)).

SMILES | IC50 [nM]
O=C1NC(=O)/C(=C/c2cccc3ccccc23)S1 | 8950
O=C(O)CN1C(=O)S/C(=C\c2cccc(Oc3ccccc3)c2)C1=O | 10700
O=C(O)CN1C(=O)S/C(=C\c2ccc(Oc3ccccc3)cc2)C1=O | 170
O=C(O)CN1C(=O)S/C(=C\c2ccc(OCc3ccccc3)cc2)C1=O | 10700
O=C1NC(=O)/C(=C/c2cccc(Oc3ccccc3)c2)S1 | 280
COC(=O)CN1C(=O)S/C(=C/c2cccc(Oc3ccccc3)c2)C1=O | 260
O=C(O)CN1C(=O)S/C(=C/c2ccc(-c3ccccc3)cc2)C1=O | 661
O=C(O)CN1C(=O)S/C(=C/c2cccc3ccccc23)C1=O | 6180
O=C1NC(=O)/C(=C\c2cccc(O)c2)S1 | 150
O=C(O)CN1C(=O)S/C(=C/c2cccc(O)c2)C1=O | 4170
COC(=O)CN1C(=O)S/C(=C/c2ccc(O)cc2)C1=O | 39100
O=C(O)CN1C(=O)S/C(=C/c2ccc(O)cc2)C1=O | 490
O=C(O)/C=C/CN1C(=O)S/C(=C/c2ccc(O)cc2)C1=O | 1190
Nc1cccc(/C=C2/SC(=O)NC2=O)c1 | 6140
COC(=O)CN1C(=O)S/C(=C/c2cccc(N)c2)C1=O | 1320
O=C(O)CN1C(=O)S/C(=C/c2cccc([N+](=O)[O-])c2)C1=O | 130
O=C(O)CN1C(=O)S/C(=C/c2ccc([N+](=O)[O-])cc2)C1=O | 820
O=C1NC(=O)/C(=C/c2ccc(O)cc2)S1 | 20200
